According to US6057314A, “Low molecular weight bicyclic thrombin inhibitors” (Biochem Pharma Inc., priority 1997, dated 2000):

These compounds were tested on carotid artery in rats (assay: FeCl3 induced carotid arterial injury model (arterial thrombosis) in rats, time to occlusion). Settings: Table 2; ivb + inf 0.75-50 (iv bolus mg/kg, infusion μg/kg/min).
Type: in vivo, rat (Sprague-Dawley)
Procedure: Arterial Thrombosis Model
FeCl3 Induced Carotid Arterial Injury Model
Animals were laid on a 37° C. heating pad. The carotid artery was exposed through a midline cervical incision. Careful blunt dissection was used to isolate the vessel from the carotid sheath. […] A temperature probe (Physitemp*MT23/3) was placed between one of the pieces of tubing and the artery. Injury was induced by topical application on the carotid artery above the temperature probe of a small disc (3 mm dia.) of Whatman* No. 1 filter paper previously dipped in a 35% solution of FeCl3 […]. The vessel temperature was monitored for 60 minutes after application of FeCl3 as an indication of blood flow.
The time between the FeCl3 application and the time at which the vessel temperature decreased abruptly (>2.4° C.) was recorded as the time to occlusion of the vessel. Inhibitor compounds were given as an iv bolus (mg/kg) followed immediately by an iv infusion (μg/kg/min. via femoral vein). The dose of inhibitor needed to double the time to occlusion in comparison to control animals in which injury was induced in the absence of inhibitor was determined.

| Compound | M.O.T (min)+/-sem [min] |
| --- | --- |
| N=C(N)NCCCC(NC(=O)[C@@H]1CS[C@@H]2CC[C@@H](CCCC3CCCCC3)C(=O)N21)C(=O)c1nccs1 (single isomer, unassigned) [Compound 0265a] | 21.5 ± 10 |
| N=C(N)NCCCC(NC(=O)C1CSC2CCC(N3C(=O)c4ccccc4C3=O)C(=O)N21)C(=O)c1nccs1 (single isomer, unassigned) [Compound 0295b] | 19 ± 2.7 |
| CC12CCC(Cc3ccc4nc(C(F)(F)F)ccc4c3)C(=O)N1C(C(=O)NC(CCCNC(=N)N)C(=O)c1nccs1)CS2 (stereo not shown) [Compound 0285, 8a-Methyl-5-oxo-6-(2-trifluoromethyl-quinolin-6-ylmethyl)-hexahydro-thiazolo[3,2-a]pyridine-3-carboxylic acid[4-guanidino-1-(thiazole-2-carbonyl)-butyl]-amide] | 11.33 ± 1.34 |
| CC12CCC(Cc3ccccc3)C(=O)N1C(C(=O)NC(CCCNC(=N)N)C(=O)c1nccs1)CS2 (stereo not shown) [Compound 0260, 6-Benzyl-8a-methyl-5-oxo-hexahydro-thiazolo[3,2-a]pyridine-3-carboxylic acid[4-guanidino-1-(thiazole-2-carbonyl)-butyl]-amide] | 14.83 ± 0.2 |
| CC12CCC(CCc3ccccc3)C(=O)N1C(C(=O)NC(CCCNC(=N)N)C(=O)c1nc3ccccc3s1)CS2 (stereo not shown) [Compound 0225, 8a-Methyl-5-oxo-6-phenethyl-hexahydro-thiazolo[3,2-a]pyridine-3-carboxylic acid[1-(benzothiazole-2-carbonyl)-4-guanidino-butyl]-amide] | 23 ± 7 |

These compounds were tested against human thrombin (Homo sapiens, UniProt P00734) (assay: Inhibition of amidolytic activity of human thrombin (Ki, fluorogenic substrate Tos-Gly-Pro-Arg-AMC)). Settings: Table 1, read-out: Ki (inhibitory dissociation constant for human thrombin).
Type: biochemical
Procedure: In an assay to determine the inhibitory dissociation constant, Ki, for a given compound, a chromogenic or fluorogenic substrate of thrombin would be added to a solution containing a test compound and thrombin; the resulting catalytic activity of the enzyme would be spectrophotometrically determined. This type of assay is well known to those skilled in the art.
Determination of K1 Values for Heterocyclics
The steady-state velocity was then measured for a few minutes. The compounds of this invention were also pre-incubated with thrombin for 20 minutes at room temperature before adding the substrate.

| Ki [nM] | Compound |
| --- | --- |
| 26000 | N=C(N)NCCCC(NC(=O)[C@@H]1CSC2CC[C@@H](Cc3ccccc3)C(=O)N21)C(=O)CCC(=O)O (stereo partly drawn) [Compound 0095, 6S-benzylhexahydro-5-oxo-5H-thiazolo[3,2-a]pyridine-3R-carboxamido((propanoic acid)ketoarginine)] |

Same assay, conditions: Table 2, read-out: Ki

| Ki [nM] | Compound |
| --- | --- |
| 4 | N=C(N)NCCCC(NC(=O)[C@@H]1CS[C@@H]2CC[C@@H](CCCC3CCCCC3)C(=O)N21)C(=O)c1nccs1 (single isomer, unassigned) [Compound 0265a] |
| 12000 | N=C(N)NCCCC(NC(=O)[C@@H]1CSC2CC[C@H](NC(=O)CCc3ccccc3)C(=O)N21)C(=O)c1nccs1 (single isomer, unassigned) [Compound 0305b] |
| 160 | N=C(N)NCCCC(NC(=O)[C@@H]1CSC[C@H]2CC[C@@H](CCc3ccccc3)C(=O)N21)C(=O)c1nccs1 (single isomer, unassigned) [Compound 0940b] |
| 500 | Cn1ccnc1C(=O)C(CCCNC(=N)N)NC(=O)[C@@H]1CS[C@@H]2CC[C@@H](Cc3ccccc3)C(=O)N21 (stereo partly shown) [Compound 0255, 6-Benzyl-5-oxo-hexahydro-thiazolo[3,2-a]pyridine-3-carboxylic acid[4-guanidino-1-(1-methyl-1H imidazole-2-carbonyl)butyl]-amide] |
| 30 | N=C(N)NCCCC(NC(=O)[C@@H]1CSC[C@H]2CC[C@@H](Cc3ccccc3)C(=O)N21)C(=O)c1nccs1 (single isomer, unassigned) [Compound 0925b] |
| 45 | N=C(N)NCCCC(NC(=O)C1CSC2CCC(NC(=O)CCc3ccccc3)C(=O)N21)C(=O)c1nccs1 (stereo not shown) [0315a + b] |
| 1000 | N=C(N)NCCCC(NC(=O)[C@@H]1CS(=O)(=O)C[C@H]2CC[C@@H](Cc3ccccc3)C(=O)N21)C(=O)c1nccs1 (single isomer, unassigned) [Compound 0950b] |
| 150 | N=C(N)NCCCC(NC(=O)[C@@H]1CS(=O)(=O)C[C@H]2CC[C@@H](Cc3ccccc3)C(=O)N21)C(=O)c1nccs1 (single isomer, unassigned) [Compound 0950a] |

The remaining lines, values behind:

| Compound | Ki [nM] |
| --- | --- |
| N=C(N)NCCCC(NC(=O)[C@@H]1CSC2CC[C@H](NC(=O)CCc3ccccc3)C(=O)N21)C(=O)c1nccs1 (single isomer, unassigned) [Compound 0305a] | 220 |
| N=C(N)NCCCC(NC(=O)[C@@H]1CSCC2CC[C@H](Cc3ccccc3)C(=O)N21)C(=O)c1nccs1 (stereo partly shown) [Compound 0935, 7-Benzyl-6-oxo-octahydro-pyrido[2,1-c][1,4]thiazine-4-carboxylic acid[4-guanidino-1-(thiazole-2-carbonyl)butyl]-amide] | 120 |
